The record followed here is paper PMC8472287, “Betulinic Acid Decorated with Polar Groups and Blue Emitting BODIPY Dye: Synthesis, Cytotoxicity, Cell-Cycle Analysis and Anti-HIV Profiling” (Biomedicines, 2021).

The structures appear in SMILES notation. Where a name gives a salt, the structure may show the parent alone. Read-outs that look alike come from different tables or passages of the source. Bounds are passed on as bounds.

The test system of series [1] is BJ. As to the kind of experiment: MTS cytotoxicity assay, BJ. It counts as cell-based. The conditions noted are these: Homo sapiens, 72 h, BJ normal fibroblasts, 3-day incubation. The source says: (§1) All cells (if not indicated otherwise) were purchased from the American Tissue Culture Collection (ATCC; Manassas, VA, USA). The highly chemosensitive CCRF-CEM line is derived from T lymphoblastic leukaemia, K562 represent cells of chronic myelogenous leukaemia. Colorectal adenocarcinoma HCT116 cell line and its p53 gene knockout counterpart (HCT116p53−/−, Horizon Discovery Ltd., Cambridge, UK) were used as models to assess the impact of p53 deficiency on cell line sensitivity. A549 cells are derived from lung adenocarcinoma and U2OS from human osteosarcoma. CEM-DNR and K562-Tax are well-characterized daunorubicin and paclitaxel-resistant sublines of CCRF-CEM and K562. The CEM-DNR resistant cells overexpress the P-glycoprotein and LRP protein, the K562-Tax overexpress P-glycoprotein but is losing the expression of LRP, which is present at parental K562 cell line. P-glycoprotein belongs to the ABC transporters’ family and is involved in the primary and acquired multidrug resistance phenomenon by the efflux of toxic compounds, LRP protein is involved in the lysosomal degradation. MRC-5 and BJ cell lines were used as a non-tumour control and represent human fibroblasts. The cells were maintained in Nunc/Corning 80 cm^2 plastic tissue culture flasks and cultured in cell culture medium according to ATCC or Horizon recommendations (DMEM/RPMI 1640 with 5 g/L-glucose, 2 mM glutamine, 100 U/mL penicillin, […] streptomycin, 10% fetal calf serum, and NaHCO3).
(§2) To perform the cytotoxicity MTS assay, cell suspensions were prepared and diluted according to the cell type and the expected target cell density (25,000–35,000 cells/mL) based on cell growth characteristics. Cells were added by an automatic pipettor (30 μL) into 384 well microtiter plates. All tested compounds were dissolved in 100% DMSO and four-fold dilutions of the intended test concentration were added in 0.15 μL aliquots at time zero to the microtiter plate wells by the echo-acoustic liquid handler Echo550 (Labcyte, San Jose, CA, USA). The experiments were performed in technical duplicates and at least three biological replicates. The cells were incubated with the tested compounds for 72 h at 37 °C, in a 5% CO2 atmosphere at 99% humidity. At the end of the incubation period, the cells were assayed by using the MTS test. Aliquots (5 µL) of the MTS stock solution were pipetted into each well and incubated for an additional 1–4 h. After this incubation period, the optical density (OD) was measured at 490 nm with an Envision microplate reader (Perkin Elmer, Waltham, Massachusetts, USA). Tumour cell survival (TCS) was calculated using the following equation: TCS = (ODdrug-exposed well/mean ODcontrol wells) × 100%.

The test system of series [2] is K562. The series can be described thus: MTS cytotoxicity assay, K562. The format is cell-based. The conditions noted are these: Homo sapiens, 72 h, 3-day incubation.
Excerpt: as §1, §2

The subject of series [3] is HCT116. As to the kind of experiment: MTS cytotoxicity assay, HCT116. The format is cell-based. The conditions noted are these: Homo sapiens, HCT-116, 72 h, 3-day incubation.
Excerpt: as §1, §2

In series [4] the test system is MRC-5. As to the kind of experiment: MTS cytotoxicity assay, MRC-5. It counts as cell-based. The conditions noted are these: Homo sapiens, MRC5, 72 h, MRC-5 normal fibroblasts, 3-day incubation.
Excerpt: as §1, §2

Series [5] concerns CEM-DNR. As to the kind of experiment: MTS cytotoxicity assay, CEM-DNR. The conditions noted are these: Homo sapiens, 72 h, CEM-DNR (daunorubicin resistant), 3-day incubation. It counts as cell-based.
Excerpt: as §1, §2

In series [6] the test system is CCRF-CEM. As to the kind of experiment: MTS cytotoxicity assay, CCRF-CEM. It counts as cell-based. The conditions noted are these: Homo sapiens, 72 h, 3-day incubation.
Excerpt: as §1, §2

For series [7], the system named is A549. The series can be described thus: MTS cytotoxicity assay, A549. The format is cell-based. The note with it: Homo sapiens, 72 h, 3-day incubation.
Excerpt: as §1, §2

Series [8] relates to HCT116p53−/−. The series can be described thus: MTS cytotoxicity assay, HCT116p53−/−. The format is cell-based. The conditions noted are these: Homo sapiens, HCT116-p53-null, 72 h, HCT116p53−/− (null p53 gene), 3-day incubation.
Excerpt: as §1, §2

Series [9] has as its system K562-Tax. As to the kind of experiment: MTS cytotoxicity assay, K562-Tax. The format is cell-based. The note with it: Homo sapiens, 72 h, K562-Tax (paclitaxel-resistant), 3-day incubation.
Excerpt: as §1, §2

In series [10] the test system is entire cell line panel.
For series [11], the system named is U2OS. As to the kind of experiment: MTS cytotoxicity assay, U2OS. The conditions noted are these: Homo sapiens, 72 h, 3-day incubation. It counts as cell-based.
Excerpt: as §1, §2

Series [12] in a line: in vitro. The conditions noted are these: human.
Series [13] relates to VSV-G pseudotyped HIV-1 particles. As to the kind of experiment: microbe, parasite or virus in culture. The conditions noted are these: for IC50: read-out: IC50i (50% infection inhibition). The format is cell-based.
The subject of series [14] is CA-SP1 processing of HIV-1 Gag polyprotein. The series can be described thus: Western blot of released virions with anti-HIV-1 CA antibody. The format is cell-based.
Where [15] appears, read: Human immunodeficiency virus 1, HEK293, 48 h.

Take `C=C(C)[C@@H]1CC[C@]2(C(=O)O)CC[C@]3(C)[C@H](CC[C@@H]4[C@@]5(C)CC[C@H](OC(=O)CC(C)(C)C(=O)O)C(C)(C)[C@@H]5CC[C@]43C)[C@@H]12` [BT, 3-O-(3,3-dimethylsuccinyl) betulinic acid, reference compound]: the IC50 was > 50 µM in series [1]; 23.6 µM in [2]; 14.2 µM in series [3]; > 50 µM in series [4]; 22.2 µM in series [5]; 12.8 µM in [6]. The IC50 in series [7] is 23.1 µM; in series [8], 18.2 µM; in [9], 22 µM; in [11] it was 27.6 µM. For the same molecule, the “cytotoxic effect in the cell line panel (in words)” value (“cytotoxic effect” for short) in series [10] was “weak or medium cytotoxic effect”.

Consider `C=C(C)[C@@H]1CC[C@]2(C(=O)NCCCN=[N+]=[N-])CC[C@]3(C)[C@H](CC[C@@H]4[C@@]5(C)CC[C@H](O)C(C)(C)[C@@H]5CC[C@]43C)[C@@H]12` [Compound 1, (3β)-N-(3-Azidopropyl)-3-hydroxylup-20(29)-ene-28-amide], for which the IC50 is > 50 µM in series [1]; > 50 µM in series [2]; > 50 µM in series [3]; > 50 µM in series [4]; > 40 µM in [12]; 16.8 µM in series [5]. The IC50 was 8.98 µM in [6]; > 50 µM in series [7]; > 50 µM in series [8]; 10.6 µM in series [9]; > 50 µM in [13] (setting [15]); 29 µM in series [11]. In series [10], the “cytotoxic effect” value was “activity only against selected cell lines”. In addition, in [13], the “anti-HIV-1 activity (in words)” value is given as “did not exhibit any potent anti-HIV-1 activity”.

`C=C(C)[C@@H]1CC[C@]2(C(=O)NCCCN=[N+]=[N-])CC[C@]3(C)[C@H](CC[C@@H]4[C@@]5(C)CC[C@H](OC(=O)CCNC6=C7C=CC=[N+]7[B-](F)(F)n7cccc76)C(C)(C)[C@@H]5CC[C@]43C)[C@@H]12` [Compound 5, (3β)-N-(3-Azidopropyl)-3-[N´-(4,4-difluoro-4-bora-3a,4a-diaza-s-indacene-8-yl)-β-alanyl]-oxy-lup-20(29)-ene-28-amide]: the IC50 in series [12] is > 40 µM; in series [13] (setting [15]), > 50 µM. In addition, in series [10], the “cytotoxic effect” value was “did not induce any cytotoxic effect”. In addition, in series [13], the “anti-HIV-1 activity (in words)” value is on record as “did not exhibit any potent anti-HIV-1 activity”.

With `C=C(C)[C@@H]1CC[C@]2(C(=O)NCCCNC(=O)OC(C)(C)C)CC[C@]3(C)[C@H](CC[C@@H]4[C@@]5(C)CC[C@H](O)C(C)(C)[C@@H]5CC[C@]43C)[C@@H]12` [Compound 7, Tert-butyl-(3-{[(3β)-3-hydroxy-28-oxolup-20(29)-ene-28-yl]amino}propyl)-carbamate], the IC50 is 20.7 µM in series [1]; > 50 µM in series [2]; > 50 µM in series [3]; 17.6 µM in series [4]; > 40 µM in series [12]; > 50 µM in series [5]. For the same molecule, the IC50 is > 50 µM in series [6]; 21.3 µM in [7]; > 50 µM in series [8]; > 50 µM in series [9]; > 50 µM in series [13] (setting [15]); 18.4 µM in series [11]. Besides, the “cytotoxic effect” value in series [10] was “activity only against selected cell lines”. Further, the “anti-HIV-1 activity (in words)” value in [13] was “did not exhibit any potent anti-HIV-1 activity”.

Take `C=C(C)[C@@H]1CC[C@]2(C(=O)NCCCN)CC[C@]3(C)[C@H](CC[C@@H]4[C@@]5(C)CC[C@H](OC(=O)CC(C)(C)C(=O)O)C(C)(C)[C@@H]5CC[C@]43C)[C@@H]12` [Compound 9, 4-{[(3β)-28-[(3-Aminopropyl)amino]-28-oxolup-20(29)-ene-3-yl]oxy}-2,2-dimethyl-4-oxo-butanooic acid hydrochloride]: the IC50 was > 50 µM in series [1]; > 50 µM in [2]; > 50 µM in series [3]; > 50 µM in series [4]; > 40 µM in [12]; > 50 µM in [5]. Further, the IC50 was 22.5 µM in [6]; > 50 µM in series [7]; > 50 µM in series [8]; > 50 µM in [9]; 14 µM in series [13] (setting [15]); > 50 µM in series [11]. Further, in series [10], the “cytotoxic effect” value was “inactive”. For the same molecule, the “CA forms identified in released viruses (CA-SP1 processing)” value in [14] is reported as “not only fully processed p24 CA, but also p25 CA-SP1 protein”.

As for `C=C(C)[C@@H]1CC[C@]2(C(=O)N3CCN(CCNC(=O)OC(C)(C)C)CC3)CC[C@]3(C)[C@H](CC[C@@H]4[C@@]5(C)CC[C@H](O)C(C)(C)[C@@H]5CC[C@]43C)[C@@H]12` [Compound 13, Tert-butyl-(2-{4-[(3β)-3-hydroxy-28-oxolup-20(29)-ene-28-yl]piperazine-1-yl}ethyl)-carbamate], the IC50 in series [1] is 5.36 µM; in [2], 5.09 µM; in series [3], 6.02 µM; in series [4], 5.18 µM; in series [12], > 40 µM; in series [5], 4.76 µM. Further, the IC50 is > 50 µM in series [6]; 5.15 µM in series [7]; 4.99 µM in [8]; 8.77 µM in series [9]; > 50 µM in [13] (setting [15]); 4.16 µM in [11]. The “cytotoxic effect” value in series [10] was “high cytotoxicity”. The “anti-HIV-1 activity (in words)” value in [13] is listed as “did not exhibit any potent anti-HIV-1 activity”.

For `C=C(C)[C@@H]1CC[C@]2(C(=O)N3CCN(CCNC4=C5C=CC=[N+]5[B-](F)(F)n5cccc54)CC3)CC[C@]3(C)[C@H](CC[C@@H]4[C@@]5(C)CC[C@H](O)C(C)(C)[C@@H]5CC[C@]43C)[C@@H]12` [Compound 15, (3β)-28-{4-[N-(4,4-Difluoro-4-bora-3a,4a-diaza-s-indacene-8-yl)-2-aminoethyl]piperazine-1-yl}-3-hydroxylup-20(29)-ene-28-one], the figures for the IC50 in series [12] and in series [13] (setting [15]) were > 40 µM and > 50 µM, respectively. In addition, the “cytotoxic effect” value in [10] was “did not induce any cytotoxic effect”. The “anti-HIV-1 activity (in words)” value in [13] is listed as “did not exhibit any potent anti-HIV-1 activity”.

In the case of `C=C(C)[C@@H]1CC[C@]2(C(=O)N3CCN(CCNC(=O)OC(C)(C)C)CC3)CC[C@]3(C)[C@H](CC[C@@H]4[C@@]5(C)CC[C@H](OC(=O)CC(C)(C)C(=O)O)C(C)(C)[C@@H]5CC[C@]43C)[C@@H]12` [Compound 16, 4-{[(3β)-28-(4-{2-[(Tert-butoxycarbonyl)amino]ethyl}piperazine-1-yl)-28-oxolup-20(29)-ene-3-yl]oxy}-2,2-dimethyl-4-oxobutanoic acid], the IC50 in series [1] was 47.6 µM; in series [2], 47.9 µM; in series [3], 46.6 µM; in series [4], 44.6 µM; in series [12], > 40 µM; in series [5], > 50 µM. Moreover, the IC50 is > 50 µM in [6]; 44.9 µM in [7]; 44.8 µM in series [8]; > 50 µM in [9]; < 10 µM in series [13] (setting [15]); 9.1 µM in [13]. This molecule also came in with an IC50 in series [11] of 44.6 µM. Further, the “cytotoxic effect” value in series [10] is given as “did not induce any cytotoxic effect”. Moreover, the “CA forms identified in released viruses (CA-SP1 processing)” value in series [14] is on record as “not only fully processed p24 CA, but also p25 CA-SP1 protein”.
